Patent US9833444B2 (priority 2013, dated 2017)
Read-outs that look alike come from different tables or passages of the source.

Legend:
human keratinocytes [1] = type: cell-based; details: compound 40 μM; flow cytometry
[2] = molecular target: recombinant toxin sphingomyelinase D (SMase D) (Loxosceles laeta, UniProt Q8I914); test: biochemical; details: for inhibition at 40 µM: read-out: inhibition of the hydrolytic activity of recombinant toxin on the SM substrate
[3] = molecular target: PLD of C. pseudotuberculosis (Corynebacterium pseudotuberculosis, UniProt P20626); type: biochemical
[4] = molecular target: SMases of Stahylococcus aureus (Staphylococcus aureus, UniProt P09978); test: Hydrolytic activity of SMase of Staphylococcus aureus on sphingomyelin; type: biochemical; details: compound 40 μM
[5] = test system: dermonecrotic lesions developed in rabbits; type: in vivo; details: for histopathological analysis of the skin of rabbits inoculated with the venom: rabbit, in vivo; for reduction of dermonecrotic injury, 24 hours after venom inoculation / inhibition of dermonecrotic injury, 48 hours / inhibition of dermonecrotic injury, 72 hours: rabbits; for reduction of dermonecrotic injury, 24 hours after venom inoculation: compound at three times IC50 (136.2 μM compound 5, 190.2 μM compound 6); for inhibition of dermonecrotic injury, 48 hours / inhibition of dermonecrotic injury, 72 hours: compound at three times IC50
MMP-9 = type: cell-based, human
TGF-β1 = type: cell-based, human
human red blood cells [6] = type: cell-based
TNF-α = type: cell-based, human
human keratinocytes [7] = test: cells; type: cell-based; details: Keratinocyte, read-out: inhibition of superoxide production
[8] = Average inhibition of all activities tested (overall efficiency); details: average over all aspects analyzed
Text: Thus, taking into consideration all the aspects analyzed, compound 5 of the present invention is 61.1% efficient, while compound 6 of this invention is 54.1% efficient in relation to the mechanisms involved in the toxicity of SMases D in the development of loxoscelism.

ERK1/2 = test: Activation of MAPK ERK1/2 signaling pathway in keratinocytes induced by recombinant SMases D, ELISA; type: cell-based, human; details: compound 40 μM
TNF receptor = type: cell-based, human
[9] = test system: venom of Loxosceles laeta; type: biochemical; details: for inhibition of the hydrolytic activity of the venom of L. laeta on the SM substrate: 40 µM
human red blood cells [10] = type: cell-based; remark: listed apart in the source
MMP-2 = type: cell-based, human
human keratinocytes [11] = test: cells; details: Keratinocyte
[12] = read-out: viability of human keratinocytes treated with recombinant toxin
[13] = read-out: viability of human keratinocytes treated with venom of L. laeta

recombinant toxin sphingomyelinase D (SMase D), sequence (Q8I914 27-311 limits assumed): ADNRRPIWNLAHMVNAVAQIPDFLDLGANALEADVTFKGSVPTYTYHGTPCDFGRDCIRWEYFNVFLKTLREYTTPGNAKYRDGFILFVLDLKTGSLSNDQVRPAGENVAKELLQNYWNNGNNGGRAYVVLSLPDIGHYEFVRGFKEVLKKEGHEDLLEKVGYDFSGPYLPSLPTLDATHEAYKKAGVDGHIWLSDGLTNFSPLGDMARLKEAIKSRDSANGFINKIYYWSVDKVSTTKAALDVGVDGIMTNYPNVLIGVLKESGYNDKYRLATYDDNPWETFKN
SMases of Stahylococcus aureus, sequence (P09978 35-330 limits assumed): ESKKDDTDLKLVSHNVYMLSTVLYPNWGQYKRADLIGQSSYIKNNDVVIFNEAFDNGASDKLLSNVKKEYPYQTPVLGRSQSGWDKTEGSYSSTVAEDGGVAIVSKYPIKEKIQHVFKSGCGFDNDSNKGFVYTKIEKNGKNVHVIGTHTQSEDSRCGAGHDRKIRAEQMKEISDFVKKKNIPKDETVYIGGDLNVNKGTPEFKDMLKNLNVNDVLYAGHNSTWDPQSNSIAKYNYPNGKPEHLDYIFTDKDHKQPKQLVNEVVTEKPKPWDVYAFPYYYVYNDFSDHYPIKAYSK
PLD of C. pseudotuberculosis, sequence (P20626 25-307 limits assumed): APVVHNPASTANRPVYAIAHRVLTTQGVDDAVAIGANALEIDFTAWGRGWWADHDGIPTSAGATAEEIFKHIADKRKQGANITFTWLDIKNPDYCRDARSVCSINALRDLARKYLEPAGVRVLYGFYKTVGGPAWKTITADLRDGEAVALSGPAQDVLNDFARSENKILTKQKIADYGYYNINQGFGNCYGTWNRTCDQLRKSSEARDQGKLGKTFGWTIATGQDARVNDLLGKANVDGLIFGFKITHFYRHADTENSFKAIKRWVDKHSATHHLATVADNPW

Structure (SMILES) | reduction of binding of SMases present in venom to the surface of human keratinocytes (human keratinocytes [1]) | reduction of binding of recombinant toxin to the surface of human keratinocytes (human keratinocytes [1]) | IC50 [2] | inhibition mechanism [2] | reduction of the hydrolytic activity of recombinant toxin on substrate LPC [2] | inhibition at 40 µM [2] | reduction of PLD activity of C. pseudotuberculosis on sphingomyelin [3] | reduction of hydrolytic activity of SMase of Staphylococcus aureus [4] | histopathological analysis of the skin of rabbits inoculated with the venom [5] | reduction of dermonecrotic injury, 24 hours after venom inoculation [5] | inhibition of dermonecrotic injury, 48 hours [5] | inhibition of dermonecrotic injury, 72 hours [5] | inhibition of MMP-9 secretion (MMP-9) | reduction of TGF-β1 production (TGF-β1) | reduction of binding of the toxin to the red blood cell surface (human red blood cells [6]) | reduction of TNF-α production (TNF-α) | inhibition at 40 µM (human keratinocytes [7]) | efficiency in relation to the mechanisms involved in the toxicity of SMases D (average inhibition of all activities tested) [8] | reduction of phosphorylated ERK1/2 (ERK1/2) | reduction of the hydrolytic activity of the venom on substrate LPC [9] | also measured
Cc1[nH]c2ccccc2c1/C=N/NS(=O)(=O)c1ccc(Br)cc1 [Compound 5, 4-bromo-N-[(E)-(2-methyl-1H-indol-3-yl)methyleneamino]benzenosulfonamide] | 63.8% | 54.9% | 45.4 ± 1.2 µM | uncompetitive action inhibitors | 38.6% | 45.7% | about 70% | efficiently reduced | reduction in the disorganization of the collagen fibers in the dermis, absence of hemorrhage and inflammatory infiltrate | 61.8% | 60% | 56% | completely inhibit | 88.3% | 96.8% | 73.9% | 70.7% | 61.1% | 65.8% | 44.4% | reversal of toxin-induced removal of the TNF receptor from the cell surface (TNF receptor): 27.7%; inhibition of the hydrolytic activity of the venom of L. laeta on the SM substrate [9]: 53%; reduction of removal of glycophorin C from the surface of human red blood cells (human red blood cells [10]): 92.6%; reduction of MMP-2 secretion (MMP-2): 81%; viability at 10 µM (human keratinocytes [11]; [12]): 55.8%; viability at 10 µM (human keratinocytes [11]; [13]): 45.9%
Cc1cc(OS(=O)(=O)c2ccc(Cl)cc2)cc2c1C(=O)C(=Cc1cccnc1)O2 [Compound 6, 4-methyl-3-oxo-2-(3-pyridylmethylene)benzo[3,4-b]furan-6-yl-4-chlorobenzenesulphonate] | 25.6% | 50.77% | 63.4 ± 1.1 µM | uncompetitive action inhibitors | 34% | 51% | about 68% | efficiently reduced | reduction in the disorganization of the collagen fibers in the dermis, absence of hemorrhage and inflammatory infiltrate | 36% | 45% | 49% | completely inhibit | 89.2% | 84% | 61.1% | 92.7% | 54.1% | 80.2% | 16% | inhibition of the hydrolytic activity of the venom of L. laeta on the SM substrate [9]: 22.7%; reduction of removal of glycophorin C from the surface of human red blood cells (human red blood cells [10]): 88.2%; reduction of MMP-2 secretion (MMP-2): 98.4%; viability at 10 µM (human keratinocytes [11]; [12]): 53.5%; viability at 10 µM (human keratinocytes [11]; [13]): 59.3%
